Biological target: T1, Recombinant human renin (Homo sapiens, UniProt P00797)
T1 construct: purchased Cayman 10006217
T1 sequence (P00797 67-406): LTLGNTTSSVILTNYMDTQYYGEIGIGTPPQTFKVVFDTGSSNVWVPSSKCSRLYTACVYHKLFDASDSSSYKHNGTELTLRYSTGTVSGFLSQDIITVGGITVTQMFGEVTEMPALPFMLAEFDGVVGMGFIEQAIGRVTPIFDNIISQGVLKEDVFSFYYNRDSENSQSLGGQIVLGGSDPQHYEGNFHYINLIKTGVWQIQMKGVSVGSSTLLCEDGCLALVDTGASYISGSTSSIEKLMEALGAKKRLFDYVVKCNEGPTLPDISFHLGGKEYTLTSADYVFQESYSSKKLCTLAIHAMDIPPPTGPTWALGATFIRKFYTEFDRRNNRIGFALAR
Experiment: Inhibition of renin (fluorogenic peptide substrate)
Assay type: biochemical
Settings: recombinant human renin 5 nM, fluorogenic peptide substrate 10 μM, 2 h at room temperature, Tris buffer pH 8; compounds tested as the obtained salt
Procedure: Recombinant human renin (Cayman, no. 10006217) at a concentration of 5 nM was incubated with the test compounds at various concentrations and the synthetic substrate Dabcyl-γ-Abu-Ile-His-Pro-Phe-His-Leu-Val-Ile-His-Thr-EDANS (Bachem, no. M-2050; Dabcyl means the 4-(4-dimethylamino-phenylazo)-benzoyl group and EDANS means the amide with 5-[(2-aminoethyl)amino]-naphthalene-1-sulfonic acid) at a concentration of 10 μM for 2 h at room temperature in 0.05 M Tris buffer (pH 8) containing 0.1 M NaCl, 2.5 mM EDTA and 1.25 mg/ml bovine serum albumin. The increase in fluorescence, which is due to fluorescence resonance energy transfer, was recorded at an excitation wavelength of 330 nm and an emission wavelength of 485 nm in a microplate spectrofluorometer. Inhibitory concentrations IC50 were calculated from the percentage of inhibition of renin activity as a function of the concentration of the test compound. […] Representative IC50 values, which were determined with the compounds in the form of the obtained salt indicated in the examples above, are listed in Table 4.

| IC50 | Structure (SMILES) |
| --- | --- |
| 2.6 nM | Cc1c(F)cccc1Cc1c(-c2ccccc2)c2ccccn2c1C(=O)N1CCN[C@@H](CC(=O)NCC(C)(C)C(N)=O)C1 [Example 7, 3-(2-{(S)-4-[2-(3-Fluoro-2-methyl-benzyl)-1-phenyl-indolizine-3-carbonyl]-piperazin-2-yl}-acetylamino)-2,2-dimethyl-propionamide] |
| 76 nM | Cc1c(F)cccc1Cc1c(C(=O)N2CCN[C@@H](C)C2)c2ccccn2c1-c1ccccc1 [Example 15, [2-(3-Fluoro-2-methyl-benzyl)-3-phenyl-indolizin-1-yl)-((S)-3-methyl-piperazin-1-yl)-methanone] |
| 10 nM | COCCN(C)C(=O)C[C@H]1CN(C(=O)c2c(Cc3cccc(F)c3C)c(-c3ccccc3)c3cc(C(=O)N(C)C)cnn23)CCN1 [Example 46] |
| 21 nM | Cc1c(F)cccc1Cc1c(-c2ccccc2)c2ccccn2c1C(=O)N1CCN[C@@H](CC(=O)NCCS(C)(=O)=O)C1 [Example 31] |
| 7.1 nM | Cc1c(F)cccc1Cc1c(-c2ccccc2)c2ccccn2c1C(=O)N1CCNCC1 [Example 1, [2-(3-Fluoro-2-methyl-benzyl)-1-phenyl-indolizin-3-yl]-piperazin-1-yl-methanone] |
| 870 nM | Cc1cccc(C)c1Cc1c(-c2ccccc2)c2ccccn2c1C(=O)N1CCN[C@H](C)C1 [Example 17, [2-(2,6-Dimethyl-benzyl)-1-phenyl-indolizin-3-yl)-((R)-3-methyl-piperazin-1-yl)-methanone] |
| 8.2 nM | Cc1c(F)cccc1Cc1c(-c2ccccc2)c2cc(O)cnn2c1C(=O)N1CCNCC1 [Example 10, [6-(3-Fluoro-2-methyl-benzyl)-3-hydroxy-5-phenyl-pyrrolo[1,2-b]pyridazin-7-yl]-piperazin-1-yl-methanone] |
| 23 nM | Cc1c(F)cccc1Cc1c(C(=O)N2CCNCC2)c2ccccn2c1-c1ccccc1 [Example 11, [2-(3-Fluoro-2-methyl-benzyl)-3-phenyl-indolizin-1-yl]-piperazin-1-yl-methanone] |
| 38 nM | Cc1c(F)cccc1Cc1c(-c2ccccc2)c2ccccn2c1C(=O)N1CCN[C@@H](CC(=O)NCc2cccnc2)C1 [Example 32] |
| 2.6 nM | Cc1c(F)cccc1Cc1c(-c2ccccc2)c2ccccn2c1C(=O)N1CCN[C@@H](CC(=O)NCC2CCOCC2)C1 [Example 6, 2-{(S)-4-[2-(3-Fluoro-2-methyl-benzyl)-1-phenyl-indolizine-3-carbonyl]-piperazin-2-yl}-N-(tetrahydropyran-4-ylmethyl)-acetamide] |
| 230 nM | CNC(=O)CC[C@H]1CN(C(=O)c2c(Cc3cccc(F)c3C)c(-c3ccccc3)c3ccccn23)CCN1 [Example 26] |
| 100 nM | Cc1c(F)cccc1Cc1c(-c2ccccc2)c2ccccn2c1C(=O)N1CCN[C@@H](CO)C1 [Example 22] |
| 360 nM | Cc1c(F)cccc1Cc1c(C(=O)N2CCNCC2)c2cc(Br)ccn2c1-c1ccccc1 [Example 12, [7-Bromo-2-(3-fluoro-2-methyl-benzyl)-3-phenyl-indolizin-1-yl]-piperazin-1-yl-methanone] |
| 38 nM | Cc1c(F)cccc1Cc1c(C2CCCCC2)c2ccccn2c1C(=O)N1CCNCC1 [Example 2, [1-Cyclohexyl-2-(3-fluoro-2-methyl-benzyl)-indolizin-3-yl]-piperazin-1-yl-methanone] |
| 28 nM | COc1ccn2c(C(=O)N3CCNCC3)c(Cc3cccc(F)c3C)c(-c3ccccc3)c2c1 [Example 35, [2-(3-fluoro-2-methyl-benzyl)-7-methoxy-1-phenyl-indolizin-3-yl]-piperazin-1-yl-methanone] |
| 4.3 nM | Cc1c(F)cccc1Cc1c(-c2ccccc2)c2cccnn2c1C(=O)N1CCNCC1 [Example 9, [6-(3-Fluoro-2-methyl-benzyl)-5-phenyl-pyrrolo[1,2-b]pyridazin-7-yl]-piperazin-1-yl-methanone] |
| 64 nM | CNC(=O)c1ccc2c(-c3ccccc3)c(Cc3cccc(F)c3C)c(C(=O)N3CCNCC3)n2c1 [Example 13, 2-(3-Fluoro-2-methyl-benzyl)-1-phenyl-3-(piperazine-1-carbonyl)-indolizine-6-carboxylic acid methylamide] |
| 31 nM | COC(=O)CCNC(=O)C[C@H]1CN(C(=O)c2c(Cc3cccc(F)c3C)c(-c3ccccc3)c3ccccn23)CCN1 [Example 30] |
| 3.4 nM | Cc1c(F)cccc1Cc1c(-c2cccc(F)c2)c2ccccn2c1C(=O)N1CCNCC1 [Example 20, [2-(3-fluoro-2-methyl-benzyl)-1-(3-fluoro-phenyl)-indolizin-3-yl]-piperazin-1-yl-methanone] |
| 7.4 nM | Cc1c(F)cccc1Cc1c(-c2ccccc2)c2cc(C(=O)N3CCCCC3)cnn2c1C(=O)N1CCN[C@@H](CC(=O)NCCO)C1 [Example 39] |
